Assay results from ChEMBL document CHEMBL3397002, “Design, synthesis, and bioevaluation of paeonol derivatives as potential anti-HBV agents” (Eur J Med Chem, 2015).

How the values were obtained:
[1] = Selectivity index, ratio of TC50 for human HepG2(2.2.15) cells to IC50 for decrease in hepatitis B viral surface antigen HBeAg secretion in human HepG2(2.2.15) cells
Hepatitis B virus [2] = assay: Decrease in HBV viral DNA replication in human HepG2(2.2.15) cells at 0.75 to 3 uM after 72 hrs by real-time PCR analysis; assay type: functional, organism-based; conditions: HepG2 2.2.15, 72 h
[3] = Selectivity index, ratio of TC50 for human HepG2(2.2.15) cells to IC50 for decrease in hepatitis B viral surface antigen HBsAg secretion in human HepG2(2.2.15) cells
[4] = Cytotoxicity against human HepG2(2.2.15) cells assessed as decrease in cell viability after 72 hrs by MTS assay; assay type: cell-based; conditions: read-out: TC50
[5] = Selectivity index, ratio of TC50 for human HepG2(2.2.15) cells to IC50 for decrease in HBV viral DNA replication in human HepG2(2.2.15) cells
Hepatitis B virus [6] = assay: Decrease in hepatitis B viral surface antigen HBeAg secretion in human HepG2(2.2.15) cells at 0.75 to 3 uM after 72 hrs by EIA analysis; assay type: functional, organism-based; conditions: HepG2 2.2.15, 72 h
Hepatitis B virus [7] = assay: Decrease in hepatitis B viral surface antigen HBsAg secretion in human HepG2(2.2.15) cells at 0.75 to 3 uM after 72 hrs by EIA analysis; assay type: functional, organism-based; conditions: HepG2 2.2.15, 72 h
[8] = Effect on cell cycle of human HepG2(2.2.15) cells assessed as cells at G1 phase at 0.75 to 3 uM after 72 hrs by propidium iodide staining based flow cytometry; assay type: ADME; conditions: hepg2 2.2.15, 72 h
Hepatitis B virus [9] = assay: Decrease in level of HBV 3.5-kb precore/pregenomic and 2.4-/2.1-kb surface antigen RNA in human HepG2(2.2.15) cells after 48 hrs by Northern blot analysis; assay type: functional, organism-based
[10] = Effect on cell cycle of human HepG2(2.2.15) cells assessed as cells at G2M phase at 0.75 to 3 uM after 72 hrs by propidium iodide staining based flow cytometry; assay type: ADME; conditions: hepg2 2.2.15, 72 h
[11] = Effect on cellular morphology of human HepG2(2.2.15) cells at 0.75 to 3 uM after 72 hrs by Giemsa staining method; assay type: ADME, cell-based; conditions: hepg2 2.2.15, 72 h

SMILES | Selectivity Index [1] | IC50 (Hepatitis B virus [2]) [µM] | Selectivity Index [3] | CC50 at 72 h [4] [µM] | Selectivity Index [5] | IC50 (Hepatitis B virus [6]) [µM] | IC50 (Hepatitis B virus [7]) [µM] | Activity [8] | inhibition (Hepatitis B virus [9]) | Activity [10] | Activity [11]
COc1ccc(C(C)=O)c(OS(=O)(=O)c2ccccc2)c1 | 3.36 | 1.86 | 7.58 | 55.4 | 29.77 | 16.5 | 7.3 |  |  |  | 
COc1ccc(C(C)=O)c(OS(=O)(=O)c2ccc(C)cc2)c1 | 3.47 | 1.04 | 7.46 | 23.7 | 22.81 | 6.83 | 3.18 |  |  |  | 
COc1ccc(C(C)=O)c(OS(=O)(=O)c2ccc(Br)cc2)c1 | 5.42 | 0.44 | 4.99 | 10.1 | 22.91 | 1.86 | 2.01 |  |  |  | 
COc1ccc(S(=O)(=O)Oc2cc(OC)ccc2C(C)=O)cc1 | 7.67 | 0.36 | 11.09 | 17.2 | 47.75 | 2.24 | 1.55 | Non-toxic | Dose-dependent effect | Non-toxic | Non-toxic
Nc1ccn([C@@H]2CS[C@H](CO)O2)c(=O)n1 [LAMIVUDINE] |  | 7.63 |  | 352 | 46.13 |  |  |  |  |  | 
COc1ccc(C(C)=O)c(OS(=O)(=O)c2ccc(F)cc2)c1 | 4.81 | 2.71 | 10.64 | 53.7 | 19.82 | 11.2 | 5.05 |  |  |  | 
COc1ccc(C(C)=O)c(OS(=O)(=O)c2ccc([N+](=O)[O-])cc2)c1 | 2.35 | 1.15 | 6.17 | 10.9 | 9.5 | 4.64 | 1.77 |  |  |  | 
COc1ccc(C(C)=O)c(OS(=O)(=O)c2ccc(N)cc2)c1 | 0.95 |  | 3.17 | 68.8 |  | 72.5 | 21.7 |  |  |  | 
COc1ccc(C(C)=O)c(OS(=O)(=O)c2ccc(Cl)cc2)c1 | 3.28 | 0.57 | 4.87 | 13.8 | 24.16 | 4.2 | 2.83 |  |  |  | 
O=c1[nH]cc(F)c(=O)[nH]1 [FLUOROURACIL] |  |  |  | 21.7 |  |  |  |  |  |  | 
